Results taken from US9795607B2, “Substituted pyrrolopyrimidine compounds, compositions thereof, and methods of treatment therewith” (Signal Pharmaceutical, LLC, priority 2013, dated 2017).
Read-outs that look alike come from different tables or passages of the source.

Tested on: Triple negative breast cancer cell line CAL51
Test: Cell Titer Glo proliferation assay, CAL51
Assay type: cell-based
Settings: Homo sapiens, CAL-51, read-out: Act. Level
Summary of the method: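 CAL51 cells grown in DMEM or RPMI1640 with 10% FBS and 2 mM L-glutamine, cultured overnight, then exposed to serially diluted compound (0.2% DMSO final) for 72 h. Viability read by Cell Titer Glo luminescence.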

[1] = CAL51 cell proliferation, Cell Titer Glo
[2] = CAL51 cell proliferation (Table 1)

IC50 [1] | IC50 [2] | SMILES
100 to 400 nM |  | COc1cc(C(=O)NC2COC2)ccc1Nc1nc(OC)c2c(-c3ccc4c(C)noc4c3)c[nH]c2n1 [Example 380, 3-methoxy-4-(4-methoxy-5-(3-methylbenzo[d]isoxazol-6-yl)-7H-pyrrolo[2,3-d]pyrimidin-2-ylamino)-N-(oxetan-3-yl)benzamide]
100 to 400 nM |  | COc1cc(C(=O)NC2COC2)ccc1Nc1nc(OC)c2c(-c3ccnc(F)c3)c[nH]c2n1 [Example 381, 4-(5-(2-fluoropyridin-4-yl)-4-methoxy-7H-pyrrolo[2,3-d]pyrimidin-2-ylamino)-3-methoxy-N-(oxetan-3-yl)benzamide]
100 to 400 nM |  | COc1cc(C(=O)NC2COC2)ccc1Nc1nc(OC)c2c(-c3cnn(C)c3)c[nH]c2n1 [Example 382, 3-methoxy-4-(4-methoxy-5-(1-methyl-1H-pyrazol-4-yl)-7H-pyrrolo[2,3-d]pyrimidin-2-ylamino)-N-(oxetan-3-yl)benzamide]
< 100 nM |  | COc1cc(C(=O)NC2COC2)ccc1Nc1nc(OC)c2c(-c3ccnc(C)c3)c[nH]c2n1 [Example 383, 3-methoxy-4-(4-methoxy-5-(2-methylpyridin-4-yl)-7H-pyrrolo[2,3-d]pyrimidin-2-ylamino)-N-(oxetan-3-yl)benzamide]
< 100 nM |  | COc1cc(C(=O)NC2COC2)ccc1Nc1nc(OC)c2c(-c3cc(C)nc(C)c3)c[nH]c2n1 [Example 384, 4-(5-(2,6-dimethylpyridin-4-yl)-4-methoxy-7H-pyrrolo[2,3-d]pyrimidin-2-ylamino)-3-methoxy-N-(oxetan-3-yl)benzamide]
1000 to 10000 nM |  | COc1cc(C(=O)NC2COC2)ccc1Nc1nc(OC)c2c(-c3cn(C)nc3C)c[nH]c2n1 [Example 387, 4-(5-(1,3-dimethyl-1H-pyrazol-4-yl)-4-methoxy-7H-pyrrolo[2,3-d]pyrimidin-2-ylamino)-3-methoxy-N-(oxetan-3-yl)benzamide]
100 to 400 nM |  | CNC(=O)c1ccc(Nc2nc(OC)c3c(-c4ccc5c(C)noc5c4)c[nH]c3n2)c(OC)c1 [Example 388, 3-methoxy-4-(4-methoxy-5-(3-methylbenzo[d]isoxazol-6-yl)-7H-pyrrolo[2,3-d]pyrimidin-2-ylamino)-N-methylbenzamide]
< 100 nM |  | COc1cc(-c2c[nH]c3nc(Nc4ccc(C(=O)NC5COC5)cc4OC)nc(OC)c23)ccn1 [Example 389, 3-methoxy-4-(4-methoxy-5-(2-methoxypyridin-4-yl)-7H-pyrrolo[2,3-d]pyrimidin-2-ylamino)-N-(oxetan-3-yl)benzamide]
< 100 nM |  | COc1cc(C(=O)N(C)C)ccc1Nc1nc(OC)c2c(-c3ccncc3)c[nH]c2n1 [Example 392, 3-methoxy-4-(4-methoxy-5-(pyridin-4-yl)-7H-pyrrolo[2,3-d]pyrimidin-2-ylamino)-N,N-dimethylbenzamide]
100 to 400 nM |  | COc1cc(C(=O)NC2COC2)ccc1Nc1nc(OC)c2c(-c3ccnc(Cl)c3)c[nH]c2n1 [Example 394, 4-(5-(2-chloropyridin-4-yl)-4-methoxy-7H-pyrrolo[2,3-d]pyrimidin-2-ylamino)-3-methoxy-N-(oxetan-3-yl)benzamide]
1000 to 10000 nM |  | COc1cc(C(=O)NC2COC2)ccc1Nc1nc(OC)c2c(-c3ccncn3)c[nH]c2n1 [Example 395, 3-methoxy-4-(4-methoxy-5-(pyrimidin-4-yl)-7H-pyrrolo[2,3-d]pyrimidin-2-ylamino)-N-(oxetan-3-yl)benzamide]
100 to 400 nM |  | COc1nc(Nc2ccc(C(=O)NC3COC3)cc2C)nc2[nH]cc(-c3ccncc3)c12 [Example 396, 4-(4-methoxy-5-(pyridin-4-yl)-7H-pyrrolo[2,3-d]pyrimidin-2-ylamino)-3-methyl-N-(oxetan-3 yl)benzamide]
 | 100 to 400 nM | COc1cc(C(=O)NC2COC2)ccc1Nc1nc(OC)c2c(-c3ccc4[nH]c(C)nc4c3)c[nH]c2n1 [Example 404, 3-methoxy-4-(4-methoxy-5-(2-methyl-1H-benzo[d]imidazol-5-yl)-7H-pyrrolo[2,3-d]pyrimidin-2-ylamino)-N-(oxetan-3-yl)benzamide]
 | 400 to 1000 nM | COc1cc(C(=O)NC2COC2)ccc1Nc1nc(OC)c2c(-c3ccnnc3)c[nH]c2n1 [Example 405, 3-methoxy-4-(4-methoxy-5-(pyridazin-4-yl)-7H-pyrrolo[2,3-d]pyrimidin-2-ylamino)-N-(oxetan-3-yl)benzamide]

The next lines start with the compound.

SMILES | IC50 [1] | IC50 [2]
COc1cc(C(=O)NC2COC2)ccc1Nc1nc(OC2(C)CCC2)c2c(-c3ccc4nc(C)oc4c3)c[nH]c2n1 [Example 379, 3-methoxy-4-(5-(2-methylbenzo[d]oxazol-6-yl)-4-(1-methylcyclobutoxy)-7H-pyrrolo[2,3-d]pyrimidin-2-ylamino)-N-(oxetan-3-yl)benzamide] | < 100 nM | 
CCn1ncc(Nc2nc(OC3CCCC3)c3c(-c4ccc5nc(C)oc5c4)c[nH]c3n2)c1Cl [Example 385, N-(5-chloro-1-ethyl-1H-pyrazol-4-yl)-4-(cyclopentyloxy)-5-(2-methylbenzo[d]oxazol-6-yl)-7H-pyrrolo[2,3-d]pyrimidin-2-amine] | 100 to 400 nM | 
COCCOc1nc(Nc2ccc(C(=O)NC3CN(C)C3)cc2OC)nc2[nH]cc(-c3ccc4nc(C)oc4c3)c12 [Example 386, 3-methoxy-4-(4-(2-methoxyethoxy)-5-(2-methylbenzo[d]oxazol-6-yl)-7H-pyrrolo[2,3-d]pyrimidin-2-ylamino)-N-(1-methylazetidin-3-yl)benzamide] | 1000 to 10000 nM | 
COc1nc(Nc2ccc(C(=O)N(C)C)cc2C)nc2[nH]cc(-c3ccc(F)cc3)c12 [Example 390, 4-(5-(4-fluorophenyl)-4-methoxy-7H-pyrrolo[2,3-d]pyrimidin-2-ylamino)-N,N,3-trimethylbenzamide] | 1000 to 10000 nM | 
COc1ccc(-c2c[nH]c3nc(Nc4ccc(C(=O)N(C)C)cc4C)nc(OC)c23)cc1 [Example 391, 4-(4-methoxy-5-(4-methoxyphenyl)-7H-pyrrolo[2,3-d]pyrimidin-2-ylamino)-N,N,3-trimethylbenzamide] | 100 to 400 nM | 
COc1nc(Nc2cn(C)nc2C)nc2[nH]cc(-c3ccncc3)c12 [Example 393, N-(1,3-dimethyl-1H-pyrazol-4-yl)-4-methoxy-5-(pyridin-4-yl)-7H-pyrrolo[2,3-d]pyrimidin-2-amine] | 100 to 400 nM | 
COc1nc(Nc2ccc(C(=O)N(C)C)cc2C)nc2[nH]cc(-c3ccc(-c4ncc[nH]4)cc3)c12 [Example 397, 4-(5-(4-(1H-imidazol-2-yl)phenyl)-4-methoxy-7H-pyrrolo[2,3-d]pyrimidin-2-ylamino)-N,N,3-trimethylbenzamide] | < 100 nM | 
COc1nc(Nc2ccc(C(=O)N(C)C)cc2C)nc2[nH]cc(-c3cnn(C)c3)c12 [Example 398, 4-(4-methoxy-5-(1-methyl-1H-pyrazol-4-yl)-7H-pyrrolo[2,3-d]pyrimidin-2-ylamino)-N,N,3-trimethylbenzamide] | 400 to 1000 nM | 
COc1nc(Nc2ccc(C(=O)N(C)C)cc2C)nc2[nH]cc(-c3ccc4[nH]c(C)nc4c3)c12 [Example 399, 4-(4-methoxy-5-(2-methyl-1H-benzo[d]imidazol-5-yl)-7H-pyrrolo[2,3-d]pyrimidin-2-ylamino)-N,N,3-trimethylbenzamide] |  | < 100 nM
COc1nc(Nc2ccc(C(=O)N(C)C)cc2C)nc2[nH]cc(-c3ccc4c(C)noc4c3)c12 [Example 400, 4-(4-methoxy-5-(3-methylbenzo[d]isoxazol-6-yl)-7H-pyrrolo[2,3-d]pyrimidin-2-ylamino)-N,N,3-trimethylbenzamide] |  | < 100 nM
COc1nc(Nc2ccnn2C)nc2[nH]cc(-c3ccncc3)c12 [Example 401, 4-methoxy-N-(1-methyl-1H-pyrazol-5-yl)-5-(pyridin-4-yl)-7H-pyrrolo[2,3-d]pyrimidin-2-amine] |  | 1000 to 10000 nM
Cc1cc(C(=O)N(C)C)ccc1Nc1nc(OC(C)C)c2c(-c3ccnc(F)c3)c[nH]c2n1 [Example 402, 4-(5-(2-fluoropyridin-4-yl)-4-isopropoxy-7H-pyrrolo[2,3-d]pyrimidin-2-ylamino)-N,N,3-trimethylbenzamide] |  | < 100 nM
COc1cc(C(=O)N(C)C)ccc1Nc1nc(OC(C)C)c2c(-c3ccnc(F)c3)c[nH]c2n1 [Example 403, 4-(5-(2-fluoropyridin-4-yl)-4-isopropoxy-7H-pyrrolo[2,3-d]pyrimidin-2-ylamino)-3-methoxy-N,N-dimethylbenzamide] |  | < 100 nM
COc1nc(Nc2ccc(C(=O)N(C)C3COC3)cc2C)nc2[nH]cc(-c3ccncc3)c12 [Example 406, 4-(4-methoxy-5-(pyridin-4-yl)-7H-pyrrolo[2,3-d]pyrimidin-2-ylamino)-N,3-dimethyl-N-(oxetan-3-yl)benzamide] |  | 100 to 400 nM
COc1nc(Nc2ccc(C(=O)N(C)C)cc2C)nc2[nH]cc(-c3ccc4nc(C)n(C)c4c3)c12 [Example 407, 4-(5-(1,2-dimethyl-1H-benzo[d]imidazol-6-yl)-4-methoxy-7H-pyrrolo[2,3-d]pyrimidin-2-ylamino)-N,N,3-trimethylbenzamide] |  | 100 to 400 nM
COc1cc(C(=O)N(C)C)ccc1Nc1nc(OC)c2c(-c3ccc4c(C)noc4c3)c[nH]c2n1 [Example 408, 3-methoxy-4-(4-methoxy-5-(3-methylbenzo[d]isoxazol-6-yl)-7H-pyrrolo[2,3-d]pyrimidin-2-ylamino)-N,N-dimethylbenzamide] |  | 100 to 400 nM
COc1nc(Nc2ccc(C(=O)N(C)C)cc2C)nc2[nH]cc(-c3ccnc(F)c3)c12 [Example 409, 4-(5-(2-fluoropyridin-4-yl)-4-methoxy-7H-pyrrolo[2,3-d]pyrimidin-2-ylamino)-N,N,3-trimethylbenzamide] |  | 400 to 1000 nM
COc1nc(Nc2ccc(C(=O)N(C)C)cc2C)nc2[nH]cc(-c3ccc4c(c3)nc(C)n4C)c12 [Example 410, 4-(5-(1,2-dimethyl-1H-benzo[d]imidazol-5-yl)-4-methoxy-7H-pyrrolo[2,3-d]pyrimidin-2-ylamino)-N,N,3-trimethylbenzamide] |  | 1000 to 10000 nM
COc1nc(Nc2ccc(C(=O)N(C)C)cc2C)nc2[nH]cc(-c3ccc(S(C)(=O)=O)cc3)c12 [Example 411, 4-(4-methoxy-5-(4-(methylsulfonyl)phenyl)-7H-pyrrolo[2,3-d]pyrimidin-2-ylamino)-N,N,3-trimethylbenzamide] |  | 1000 to 10000 nM
